{"source": "paper PMC9145754", "about": "“Novel Soloxolone Amides as Potent Anti-Glioblastoma Candidates: Design, Synthesis, In Silico Analysis and Biological Activities In Vitro and In Vivo” (Pharmaceuticals, 2022)", "key": {"[1]": {"tested_on": "U118 cells", "assay": "MTT cytotoxicity assay, U118", "type": "cell-based", "details": "Homo sapiens, 24 h, read-out: IC50, Glioblastoma, U118", "protocol": "To evaluate the antitumor activity of the synthesized soloxolone amides in brain tumor cells, the cytotoxicity of compounds 4–12, predicted as BBB-permeable (Figure 3), was further analyzed in human glioblastoma U87 and U118 cells, as well as human neuroblastoma KELLY and murine neuroblastoma Neuro2a cells.\nThe cells in the exponential growth phase were seeded in quadruplicate in 96-well plates at a density of 1 × 10^4 cells/well for HeLa, U87, U118, KELLY and Neuro2a cells; 1.5 × 10^4 cells/well for HuTu-80 cells; 2 × 10^4 cells/well for B16 cells; and 7 × 10^3 cells/well for hFF3 fibroblasts. Cells were incubated under standard conditions overnight followed by their treatment with the investigated compounds (1–20 µM) for 24 h. Then, 10 µL of MTT solution was added to the cells to a final concentration of 0.5 mg/mL and plates were placed under standard conditions for 3 h followed by an aspiration of MTT-containing medium and a dissolution of formazan crystals with 100 µL of DMSO. The absorbance of each well was read at test and reference wavelengths of 570 and 620 nm, respectively, on a Multiscan RC plate reader (Thermo LabSystems, Helsinki, Finland)."}, "[2]": {"assay": "Brain accumulation of 12 by HPLC–MS/MS", "type": "in vivo, Balb/C nude mice", "details": "seven injections", "protocol": "(seven injections were performed in total) and brain tissue was collected 48 h after the last injection of 12 followed by a high-performance liquid chromatography–tandem mass spectrometry (HPLC–MS/MS) analysis of the obtained samples (Figure 3D). This treatment regimen was chosen due to its common usage in the evaluation of antitumor activity of various low-molecular weight compounds in xenograft murine models. […] Before the HPLC–MS/MS analysis, chromatographic conditions and mass spectrometer parameters for detecting both semisynthetic triterpenoid 12 and the internal standard in the multiple reaction monitoring (MRM) mode were optimized. […]\nTo estimate the content of 12 in mouse brain tissue, a set of calibrators was prepared followed by their preparation protocol. The obtained samples were analyzed using the developed HPLC–MS/MS method and a calibration curve was built over the range of concentrations of 10–1000 ng/g. […] The validation of the method for quantification of 12 in mouse brain tissue and investigation of its pharmacokinetics will be the objectives of our next study. […]\nTo prepare calibrators, mouse brain tissue samples taken from three healthy untreated animals were pooled and homogenized as described above. […] The obtained supernatants were transferred into vial inserts and analyzed. To quantify 12 in experimental animal brain tissue, a sample weighing c.a. […]"}}, "data": [{"molecule": "CC1(C)C(=O)C(C#N)=C[C@]2(C)C3=CC(=O)[C@@H]4[C@@H]5C[C@@](C)(C(=O)NCCc6c[nH]c7ccccc67)CC[C@]5(C)CC[C@@]4(C)[C@]3(C)CC[C@@H]12", "note": "[compound 12]", "values": [{"measurement": "IC50", "setting": "[1]", "value": "1900 ± 200", "unit": "nM"}, {"measurement": "concentration of 12 in brain tissue of tumor-bearing mice", "setting": "[2]; U87 tumor-bearing nude mice, 20 mg/kg i.p.", "value": 118, "unit": "ng/g"}, {"measurement": "concentration of 12 in brain tissue", "setting": "[2]; nude mice, 50 mg/kg i.p., thrice a week, 48 h after last injection", "value": 490, "unit": "ng/g"}]}]}
